Assay [1] relates to velvetleaf (Abutilon theophrasti MEDIC.). Put plainly: Foliar treatment pot test, growth inhibition rate visually observed. In kind it is in vivo. To be noted: for inhibition at 18.75 g/ha / inhibition at 37.5 g/ha: 8 DAT. On the procedure: (§1) Upland field soil was put into a 1/1,000,000 hectare pot, and seeds of various plants (barnyardgrass (Echinochloa crus-galli L.) and velvetleaf (Abutilon theophrasti MEDIC.) were sown. When the respective plants reached predetermined leaf stage, herbicidal compositions in predetermined amounts were diluted with water in an amount corresponding to 300 L/ha and applied for foliar treatment by a small sprayer.
(§2) On the 8 to 14 days after treatment (DAT), the state of growth of the respective plants was visually observed to determine the growth inhibition rate (measured value) in accordance with the following evaluation standard. Further, in accordance with the Colby's formula, the growth inhibition rate (calculated value) was calculated. In Tables, with respect to the benzoylpyrazole compound represented by the formula (I), Compound Nos. in Table 1 are described, and with respect to other compounds, common names are described. […]

Assay [2] has as its system barnyardgrass (Echinochloa crus-galli L.). The assay is described as above. The following applies: for inhibition at 18.75 g/ha / inhibition at 37.5 g/ha: 8 DAT. The class given is in vivo. Here is the method:
as §1, §2

[3] abbreviates: 192 h, 1.8 to 2.4 leaf stage, foliar treatment, Table 2-2, read-out: Growth inhibition rate (%) of velvetleaf, Measured value.
Where [4] appears, read: 192 h, 1.8 to 2.4 leaf stage, foliar treatment, Table 2-6, read-out: Growth inhibition rate (%) of velvetleaf, Measured value.
Setting [5] is: 192 h, 2.6 to 3.2 leaf stage, foliar treatment, Table 2-4, read-out: Growth inhibition rate (%) of velvetleaf, Measured value.
Where [6] appears, read: 192 h, 2.6 to 3.2 leaf stage, foliar treatment, Table 2-11, read-out: Growth inhibition rate (%) of velvetleaf, Measured value.
Setting [7] is: 192 h, 2.6 to 3.2 leaf stage, foliar treatment, Table 2-13, read-out: Growth inhibition rate (%) of velvetleaf, Measured value.
Where [8] appears, read: 192 h, 2.8 to 3.4 leaf stage, foliar treatment, Table 2-5, read-out: Growth inhibition rate (%) of barnyardgrass, Measured value.
Setting [9] is: 192 h, 2.8 to 3.4 leaf stage, foliar treatment, read-out: Growth inhibition rate (%) of barnyardgrass, Measured value.
[10] abbreviates: 192 h, 3.6 to 4.5 leaf stage, foliar treatment, Table 2-3, read-out: Growth inhibition rate (%) of barnyardgrass, Measured value.
Setting [11] is: 192 h, 3.6 to 4.5 leaf stage, foliar treatment, Table 2-10, read-out: Growth inhibition rate (%) of barnyardgrass, Measured value.
Where [12] appears, read: 192 h, 3.6 to 4.5 leaf stage, foliar treatment, Table 2-12, read-out: Growth inhibition rate (%) of barnyardgrass, Measured value.
Setting [13] is: 192 h, read-out: Growth inhibition rate (%) of velvetleaf, Measured value.
Where [14] appears, read: 192 h, read-out: Growth inhibition rate (%) of barnyardgrass, Measured value.

Molecules are shown by their SMILES. Like-named read-outs stand apart in the source and are kept apart here.

Consider `CC(C)c1nn(C(=O)NC(C)(C)C)c(=O)n1N` [Amicarbazone], for which the inhibition at 18.75 g/ha in assay [1] (setting [3]) was 40%; in assay [1] (setting [4]) it was 40%; in assay [1] (setting [5]), 50%; in assay [1] (setting [6]) it was 50%; in assay [1] (setting [7]), 50%; in assay [2] (setting [8]), 30%. The inhibition at 18.75 g/ha in assay [2] (setting [9]) amounted to 30%; in assay [2] (setting [10]), 20%; in assay [2] (setting [11]), 20%; in assay [2] (setting [12]), 20%. Moreover, the inhibition at 37.5 g/ha in assay [1] (setting [3]) stood at 45%; in assay [1] (setting [4]) it was 45%; in assay [1] (setting [5]), 60%; in assay [1] (setting [6]), 60%; in assay [1] (setting [7]), 60%; in assay [2] (setting [8]), 50%. The inhibition at 37.5 g/ha in assay [2] (setting [9]) came to 50%; in assay [2] (setting [10]), 25%; in assay [2] (setting [11]) it was 25%; in assay [2] (setting [12]) it was 25%. The inhibition at 30 g/ha is 35% in assay [1] (336 h, 30 g/ha, 4 to 4.5 leaf stage, 14 DAT, foliar treatment, read-out: Growth inhibition rate (%) of velvetleaf, Measured value) and 0% in assay [2] (336 h, 30 g/ha, 4.2 to 5.3 leaf stage, 14 DAT, foliar treatment, read-out: Growth inhibition rate (%) of barnyardgrass, Measured value). Further, the inhibition at 50 g/ha in assay [1] (336 h, 50 g/ha, 4 to 4.5 leaf stage, 14 DAT, foliar treatment, read-out: Growth inhibition rate (%) of velvetleaf, Measured value) is 55%; in assay [2] (336 h, 50 g/ha, 4.2 to 5.3 leaf stage, 14 DAT, foliar treatment, read-out: Growth inhibition rate (%) of barnyardgrass, Measured value), 0%. In addition, the inhibition at 75 g/ha in assay [1] (336 h, 75 g/ha, 4 to 4.5 leaf stage, 14 DAT, foliar treatment, read-out: Growth inhibition rate (%) of velvetleaf, Measured value) was 55%; in assay [2] (264 h, 75 g/ha, 3.2 to 4.1 leaf stage, 11 DAT, foliar treatment, read-out: Growth inhibition rate (%) of barnyardgrass, Measured value), 40%; in assay [2] (336 h, 75 g/ha, 4.2 to 5.3 leaf stage, 14 DAT, foliar treatment, read-out: Growth inhibition rate (%) of barnyardgrass, Measured value), 15%. For the same compound, the inhibition at 150 g/ha in assay [2] (264 h, 150 g/ha, 3.2 to 4.1 leaf stage, 11 DAT, foliar treatment, read-out: Growth inhibition rate (%) of barnyardgrass, Measured value) stood at 73%.
In the case of `CS(=O)(=O)c1ccc(C(=O)C2C(=O)CCCC2=O)c(Cl)c1` [Sulcotrione], in assay [1] (setting [13]), the inhibition at 75 g/ha is 30% and the inhibition at 150 g/ha was 30%. For the same compound, in assay [2] (setting [14]), the inhibition at 75 g/ha was 40% and the inhibition at 150 g/ha stood at 45%.
Regarding `Cc1c(C(=O)c2cnn(C)c2O)ccc(S(C)(=O)=O)c1C1=NOCC1` [Topramezone], in assay [1] (setting [13]), the inhibition at 7 g/ha was determined as 30% and the inhibition at 15 g/ha worked out at 30%. Besides, in assay [2] (setting [14]), the inhibition at 7 g/ha was 40% and the inhibition at 15 g/ha came to 40%.

One may read the inhibition as the share of the control response that was lost under treatment.

The record behind these values is patent US8609591B2, “Herbicidal composition” (Ishihara Sangyo Kaisha, Ltd., priority 2010, dated 2013).
